Experimental data from ChEMBL document CHEMBL1130776, “Synthesis and biological activity of 3-substituted 3-desoxynaltrindole derivatives” (Bioorg Med Chem Lett, 1998).

Key:
[1] = molecular target: Mu-type opioid receptor (Rattus norvegicus, UniProt P33535); assay: Compound was tested for its ability to displace [3H]DAMGO from mu receptor in rat brain.; assay type: tissue-based
[2] = molecular target: Delta-type opioid receptor (Rattus norvegicus, UniProt P33533); assay: Compound was tested for its ability to displace [3H]DADLE from delta receptor in rat brain.; assay type: tissue-based
[3] = molecular target: Kappa-type opioid receptor (Cavia porcellus, UniProt P41144); assay: Compound was tested for its ability to displace [3H]U-69593 from kappa receptor in guinea pig brain.
Chain of Kappa-type opioid receptor (P41144 whole entry): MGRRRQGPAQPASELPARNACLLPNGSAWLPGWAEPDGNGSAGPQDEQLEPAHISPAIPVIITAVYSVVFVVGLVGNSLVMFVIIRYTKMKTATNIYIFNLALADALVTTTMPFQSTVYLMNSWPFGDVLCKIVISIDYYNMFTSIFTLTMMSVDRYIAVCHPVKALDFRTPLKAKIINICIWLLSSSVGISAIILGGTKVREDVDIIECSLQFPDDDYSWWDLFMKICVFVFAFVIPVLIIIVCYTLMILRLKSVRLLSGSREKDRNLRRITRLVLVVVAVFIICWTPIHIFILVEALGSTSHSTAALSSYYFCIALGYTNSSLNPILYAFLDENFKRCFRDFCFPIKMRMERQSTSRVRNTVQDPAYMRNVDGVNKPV

Chain of Delta-type opioid receptor (P33533 whole entry): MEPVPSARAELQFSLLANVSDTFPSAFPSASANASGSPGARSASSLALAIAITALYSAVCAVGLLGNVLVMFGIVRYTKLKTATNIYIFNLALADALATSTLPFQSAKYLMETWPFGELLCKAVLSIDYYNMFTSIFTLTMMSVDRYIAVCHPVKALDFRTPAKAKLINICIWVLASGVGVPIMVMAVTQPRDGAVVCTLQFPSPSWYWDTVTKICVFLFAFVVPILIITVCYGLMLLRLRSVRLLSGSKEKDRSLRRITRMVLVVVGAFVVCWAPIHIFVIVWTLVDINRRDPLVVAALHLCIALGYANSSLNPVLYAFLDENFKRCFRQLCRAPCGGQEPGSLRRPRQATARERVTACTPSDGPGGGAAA
Chain of Mu-type opioid receptor (P33535 whole entry): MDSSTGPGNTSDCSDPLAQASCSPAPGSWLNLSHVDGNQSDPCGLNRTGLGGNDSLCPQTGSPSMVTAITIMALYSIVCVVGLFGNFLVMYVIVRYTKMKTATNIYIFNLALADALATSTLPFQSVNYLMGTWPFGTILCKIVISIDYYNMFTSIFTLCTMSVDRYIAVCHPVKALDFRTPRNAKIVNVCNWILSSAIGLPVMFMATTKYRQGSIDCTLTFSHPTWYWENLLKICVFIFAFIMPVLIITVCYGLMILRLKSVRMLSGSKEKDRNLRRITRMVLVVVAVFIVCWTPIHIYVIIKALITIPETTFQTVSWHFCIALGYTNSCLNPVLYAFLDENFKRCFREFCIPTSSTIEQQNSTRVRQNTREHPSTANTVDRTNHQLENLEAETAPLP

SMILES: O[C@@]12Cc3c([nH]c4ccccc34)[C@@H]3Oc4c(-c5ccccc5)ccc5c4[C@@]31CCN(CC1CC1)[C@@H]2C5
- Ki [1]: > 5.68 µM
- Ki [2]: 10.6 µM
- Ki [3]: > 6.8 µM

SMILES: O[C@@]12Cc3c([nH]c4ccccc34)[C@@H]3Oc4c(-c5ccco5)ccc5c4[C@@]31CCN(CC1CC1)[C@@H]2C5
- Ki [1]: > 5.68 µM
- Ki [2]: 0.959 µM
- Ki [3]: > 6.8 µM

SMILES: Cc1ccc2c3c1O[C@H]1c4[nH]c5ccccc5c4C[C@@]4(O)[C@@H](C2)N(CC2CC2)CC[C@]314
- Ki [1]: > 5.68 µM
- Ki [2]: 0.071 µM
- Ki [3]: > 6.8 µM

SMILES: O[C@@]12Cc3c([nH]c4ccccc34)[C@H]3Oc4cccc5c4[C@@]31CCN(CC1CC1)[C@@H]2C5
- Ki [1]: > 5.68 µM
- Ki [2]: 0.035 µM
- Ki [3]: 10.9 µM

SMILES: Oc1ccc2c3c1O[C@H]1c4[nH]c5ccccc5c4C[C@@]4(O)[C@@H](C2)N(CC2CC2)CC[C@]314 [NALTRINDOLE]
- Ki [2]: 0.000217 µM
- Ki [3]: 0.0304 µM

SMILES: COc1cccc(-c2ccc3c4c2O[C@H]2c5[nH]c6ccccc6c5C[C@@]5(O)[C@@H](C3)N(CC3CC3)CC[C@]425)c1
- Ki [1]: > 5.68 µM
- Ki [2]: > 6.67 µM
- Ki [3]: > 6.8 µM

SMILES: C=Cc1ccc2c3c1O[C@H]1c4[nH]c5ccccc5c4C[C@@]4(O)[C@@H](C2)N(CC2CC2)CC[C@]314
- Ki [1]: > 5.68 µM
- Ki [2]: 0.061 µM
- Ki [3]: 17.6 µM

SMILES: Oc1cccc(-c2ccc3c4c2O[C@H]2c5[nH]c6ccccc6c5C[C@@]5(O)[C@@H](C3)N(CC3CC3)CC[C@]425)c1
- Ki [1]: > 5.68 µM
- Ki [2]: 1.61 µM
- Ki [3]: > 6.8 µM
